In patent publication US9120785B2, “Pyridyl aminopyridines as Syk inhibitors” (Merck Sharp & Dohme Corp., priority 2011, dated 2015):
Like-named read-outs stand apart in the source and are kept apart here.

How the values were obtained:
[1] = target: recombinant human GST-Syk (Homo sapiens (Human), UniProt P43405); assay: Homogeneous Time-Resolved Fluorescence (HTRF) assay for the recombinant human Syk enzyme; assay type: biochemical; settings: recombinant human GST-Syk 5 pM, ATP 25 μM
Summary of the method: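 GST-hSyk (5 pM final) preincubated 10 min at room temperature with inhibitor (0.1% DMSO) in 15 mM Tris-HCl pH 7.5, 0.01% Tween 20, 2 mM DTT. Reaction with 250 nM biotinylated peptide, 5 mM Mg, 25 μM ATP for 45 min, room temperature. Quenched with EDTA; Eu-anti-phosphotyrosine/SA-APC HTRF read after 30 min.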

[2] = dosed intranasally, phase I/II study, allergic rhinitis; cited from earlier work
[3] = phase II clinical trial, allergic rhinitis; cited from earlier work
[4] = class symbols, read-out: rhSyk activity (IC50)

Row | IC50 [1, 4] [nM] | Compound | also measured
1 | ≤ 100 | Cc1cc(Nc2cc(C(F)(F)F)ccn2)nc(-c2cnc(C(C)(O)C3CCC(C(=O)O)C(C)C3)s2)c1 (centres unmarked) [Example 15-16, 4-{1-hydroxy-1-[5-(4-methyl-6-{[4-(trifluoromethyl)pyridin-2-yl]amino}pyridin-2-yl)-1,3-thiazol-2-yl]ethyl}-2-methylcyclohexanecarboxylic acid] | –
2 | ≤ 100 | Cc1cc(Nc2cc(C(F)(F)F)ccn2)nc(-c2cnc(C(C)(O)C3CCC(C(=O)O)C(C)C3)s2)c1 (centres unmarked) [Example 15-17, 4-{1-hydroxy-1-[5-(4-methyl-6-{[4-(trifluoromethyl)pyridin-2-yl]amino}pyridin-2-yl)-1,3-thiazol-2-yl]ethyl}-2-methylcyclohexanecarboxylic acid] | –

Continued, compound first:

Row | Compound | IC50 [1, 4] [nM] | also measured
3 | Cc1cc(Nc2cc(C(F)(F)F)ccn2)nc(-c2cnc(C(C)(O)C3CCC(C(=O)O)C(C)C3)s2)c1 (centres unmarked) [Example 15-15, 4-{1-hydroxy-1-[5-(4-methyl-6-{[4-(trifluoromethyl)pyridin-2-yl]amino}pyridin-2-yl)-1,3-thiazol-2-yl]ethyl}-2-methylcyclohexanecarboxylic acid] | ≤ 100 | –
4 | Oc1cccc(Nc2ncc(F)c(Nc3cccc(O)c3)n2)c1 [Example R112] | – | clinical safety [2]: safe across a range of indicators; decrease in PGD2 [2]: statistically significant decrease; efficacy versus placebo [3]: lack of efficacy versus placebo
5 | butyl trans-4-[1-hydroxy-1-(5-{6-[(4-methoxypyridin-2-yl)amino]-4-methylpyridin-2-yl}-1,3-thiazol-2-yl)ethyl]cyclohexanecarboxylate [Example 14-2] | 100 to 1000 | IC50 ([1]; 10-dose titration, read-out: rhSyk (nM) IC50): 219 nM
